From ChEMBL document CHEMBL1201862, “PubChem BioAssay data set” (2004)
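Compound exposure: 48 hours, 5 concentrations, 96-well plates. Abbreviation: GI50, concentration required for 50% inhibition of growth.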 Active and inactive are the calls of the source. Rule as the data show it: active = GI50 up to about 1.1 µM and inactive = higher.

How the values were obtained:
Assay in all cases: NCI anticancer screen, dose series, 48 h
786-0 = test system: 786-0
A498 = test system: A498
ACHN = test system: ACHN
CAKI-1 = test system: CAKI-1
CCRF-CEM = test system: CCRF-CEM
COLO 205 = test system: COLO 205
DLD-1 = test system: DLD-1
DMS-273 = test system: DMS-273
EKVX = test system: EKVX
HCT-116 = test system: HCT-116
HCT-15 = test system: HCT-15
HL-60 = test system: HL-60
HOP-18 = test system: HOP-18
HOP-62 = test system: HOP-62
HOP-92 = test system: HOP-92
HT-29 = test system: HT-29
IGROV-1 = test system: IGROV-1
K562 = test system: K562
KM-20L2 = test system: KM-20L2
KM12 = test system: KM12
LOX IMVI = test system: LOX IMVI
LXFL 529 = test system: LXFL 529
M14 = test system: M14
M19-MEL = test system: M19-MEL
MOLT-4 = test system: MOLT-4
Malme-3M = test system: Malme-3M
NCI-H226 = test system: NCI-H226
NCI-H23 = test system: NCI-H23
NCI-H460 = test system: NCI-H460
NCI-H522 = test system: NCI-H522
OVCAR-3 = test system: OVCAR-3
OVCAR-4 = test system: OVCAR-4
OVCAR-5 = test system: OVCAR-5
OVCAR-8 = test system: OVCAR-8
RPMI-8226 = test system: RPMI-8226
RXF 631 = test system: RXF 631
SF-268 = test system: SF-268
SF-295 = test system: SF-295
SF-539 = test system: SF-539
SK-MEL-28 = test system: SK-MEL-28
SK-MEL-2 = test system: SK-MEL-2
SK-MEL-5 = test system: SK-MEL-5
SK-OV-3 = test system: SK-OV-3
SN12C = test system: SN12C
SNB-19 = test system: SNB-19
SNB-75 = test system: SNB-75
SNB-78 = test system: SNB-78
SR = test system: SR
SW-620 = test system: SW-620
TK-10 = test system: TK-10
U-251 = test system: U-251
UACC-257 = test system: UACC-257
UACC-62 = test system: UACC-62
UO-31 = test system: UO-31
XF498 = test system: XF498
A549 = test system: A549
DMS-114 = test system: DMS-114
RXF 393 = test system: RXF 393

CC1=CC(=O)NP(=O)(C23CC4CC(CC(C4)C2)C3)N1 (stereo unspecified)
GI50 (786-0): > 100 µM (inactive)
GI50 (A498): > 100 µM (inactive)
GI50 (ACHN): > 100 µM (inactive)
GI50 (CAKI-1): > 100 µM (inactive)
GI50 (CCRF-CEM): > 100 µM (inactive)
GI50 (COLO 205): > 100 µM (inactive)
GI50 (DLD-1): > 100 µM (inactive)
GI50 (DMS-273): > 100 µM (inactive)
GI50 (EKVX): > 100 µM (inactive)
GI50 (HCT-116): > 100 µM (inactive)
GI50 (HCT-15): > 100 µM
GI50 (HL-60): > 100 µM (inactive)
GI50 (HOP-18): > 100 µM (inactive)
GI50 (HOP-62): > 100 µM (inactive)
GI50 (HOP-92): > 100 µM (inactive)
GI50 (HT-29): > 100 µM (inactive)
GI50 (IGROV-1): > 100 µM (inactive)
GI50 (K562): > 100 µM (inactive)
GI50 (KM-20L2): > 100 µM (inactive)
GI50 (KM12): > 100 µM (inactive)
GI50 (LOX IMVI): > 100 µM (inactive)
GI50 (LXFL 529): > 100 µM (inactive)
GI50 (M14): > 100 µM (inactive)
GI50 (M19-MEL): > 100 µM (inactive)
GI50 (MOLT-4): > 100 µM (inactive)
GI50 (Malme-3M): > 100 µM (inactive)
GI50 (NCI-H226): > 100 µM (inactive)
GI50 (NCI-H23): > 100 µM (inactive)
GI50 (NCI-H460): > 100 µM (inactive)
GI50 (NCI-H522): > 100 µM (inactive)
GI50 (OVCAR-3): > 100 µM (inactive)
GI50 (OVCAR-4): > 100 µM (inactive)
GI50 (OVCAR-5): > 100 µM (inactive)
GI50 (OVCAR-8): > 100 µM (inactive)
GI50 (RPMI-8226): > 100 µM (inactive)
GI50 (RXF 631): > 100 µM (inactive)
GI50 (SF-268): > 100 µM (inactive)
GI50 (SF-295): > 100 µM (inactive)
GI50 (SF-539): > 100 µM (inactive)
GI50 (SK-MEL-28): > 100 µM (inactive)
GI50 (SK-MEL-2): > 100 µM (inactive)
GI50 (SK-MEL-5): > 100 µM (inactive)
GI50 (SK-OV-3): > 100 µM (inactive)
GI50 (SN12C): > 100 µM (inactive)
GI50 (SNB-19): > 100 µM (inactive)
GI50 (SNB-75): > 100 µM (inactive)
GI50 (SNB-78): > 100 µM (inactive)
GI50 (SR): > 100 µM (inactive)
GI50 (SW-620): > 100 µM (inactive)
GI50 (TK-10): > 100 µM (inactive)
GI50 (U-251): > 100 µM (inactive)
GI50 (UACC-257): > 100 µM (inactive)
GI50 (UACC-62): > 100 µM (inactive)
GI50 (UO-31): > 100 µM (inactive)
GI50 (XF498): > 100 µM (inactive)

O=C(CC1(O)C(=O)Nc2c(Cl)cc(Cl)cc21)c1ccccc1 (stereo unspecified)
GI50 (786-0): > 100 µM (inactive)
GI50 (A498): > 100 µM (inactive)
GI50 (A549): > 100 µM (inactive)
GI50 (ACHN): > 100 µM (inactive)
GI50 (CAKI-1): > 100 µM (inactive)
GI50 (COLO 205): > 100 µM (inactive)
GI50 (DMS-114): 39.7 µM (inactive)
GI50 (DMS-273): 45.7 µM (inactive)
GI50 (EKVX): 82.4 µM (inactive)
GI50 (HCT-116): 50.5 µM (inactive)
GI50 (HCT-15): 80.9 µM
GI50 (HL-60): 37 µM (inactive)
GI50 (HOP-92): > 100 µM (inactive)
GI50 (HT-29): 31.6 µM (inactive)
GI50 (IGROV-1): > 100 µM (inactive)
GI50 (K562): 47.4 µM (inactive)
GI50 (KM-20L2): > 100 µM (inactive)
GI50 (LOX IMVI): > 100 µM (inactive)
GI50 (LXFL 529): 50.1 µM (inactive)
GI50 (M14): > 100 µM (inactive)
GI50 (M19-MEL): 31.6 µM (inactive)
GI50 (MOLT-4): 33.6 µM (inactive)
GI50 (Malme-3M): > 100 µM (inactive)
GI50 (NCI-H226): > 100 µM (inactive)
GI50 (NCI-H23): 77.6 µM (inactive)
GI50 (NCI-H460): > 100 µM (inactive)
GI50 (NCI-H522): 55.1 µM (inactive)
GI50 (OVCAR-3): > 100 µM (inactive)
GI50 (OVCAR-4): 39.2 µM (inactive)
GI50 (OVCAR-5): > 100 µM (inactive)
GI50 (OVCAR-8): 71.8 µM (inactive)
GI50 (RPMI-8226): 31.3 µM (inactive)
GI50 (RXF 393): > 100 µM (inactive)
GI50 (RXF 631): > 100 µM (inactive)
GI50 (SF-268): 76 µM (inactive)
GI50 (SF-295): 52.6 µM (inactive)
GI50 (SF-539): > 100 µM (inactive)
GI50 (SK-MEL-28): > 100 µM (inactive)
GI50 (SK-MEL-2): > 100 µM (inactive)
GI50 (SK-MEL-5): 60.3 µM (inactive)
GI50 (SK-OV-3): > 100 µM (inactive)
GI50 (SN12C): > 100 µM (inactive)
GI50 (SNB-19): > 100 µM (inactive)
GI50 (SNB-75): 38.6 µM (inactive)
GI50 (SNB-78): 81.3 µM (inactive)
GI50 (SW-620): 40.9 µM (inactive)
GI50 (TK-10): > 100 µM (inactive)
GI50 (UACC-257): 57 µM (inactive)
GI50 (UACC-62): 59.4 µM (inactive)
GI50 (UO-31): 52.1 µM (inactive)
GI50 (XF498): 47.1 µM (inactive)
